Test results as given in patent publication US9493479B2 (Merck Sharp & Dohme Corp., priority 2013, dated 2016).
Structures can show the parent of a compound that is named as a salt.

Tests used:
[1] = tested on: HIV-1 (NL4-3 strain); experiment: ViKinG (Viral Kinetics GFP Reporter) assay for inhibition of HIV replication; type: cell-based; details: MT4-GFP cells infected with HIV-1 NL4-3, RPMI + 10% or 50% NHS (not given), infected cells at 48 h / 24 h
Text: The ViKinG (Viral Kinetics GFP Reporter) assay is an in vitro kinetic assay that employs the MT4-gag-GFP reporter cell line (Wang et al., “Assessment of the susceptibility of mutant HIV-1 to antiviral agents.” J Virological Methods 165:230-37 (2010)) to quantify the number of new cells infected in each round of replication. The purpose of the ViKinG assay is to identify agents that inhibit HIV progression. Briefly, HIV infection results in tat transactivation of the stably expressed HIV LTR promoter to drive gagGFP expression. Thus, an increase in the number of GFP-MT4 cells results following HIV infection.
MT4-GFP cells (250,000 cells/m1) were bulk-infected with HIV-1 (NL4-3 strain) at low multiplicity of infection (MOT) in RPMI+10% FBS for 24 hours. Cells were then washed once in RPMI+10% FBS and resuspended RPMI+10% or 50% normal human serum (NHS). Test compounds were serial-diluted in DMSO on an ECHO® liquid handling platform (Labcyte Corp., Sunnyvale, Calif.), along with a triple drug control (integrase, protease and NNRTI compounds). The infected MT4-GFP cells were added to a 384-well poly-D-lysine coated black plate with clear bottom in which the diluted test compounds were placed. The cells were seeded at 8,000 cells per well and the final DMSO concentration was 0.4%. The infected cells (Green GFP cells) were quantified at both 24 and 48 hours post incubation using Acumen® eX3 (TTP Labtech Ltd., Hertfordshire, United Kingdom). Viral reproductive ratio (R0) was determined using the number of infected cells at 48 hours divided by the number of infected cells at 24 hours. Percent viral growth inhibition was calculated by [1−(R−Rtripledrug)/(RDMSO−Rtripledrug)]*100. Compound potency IP or IC50 was determined by a 4-parameter dose response curve analysis.

[2] = molecular target: T1, WT-Integrase (Human immunodeficiency virus type 1 group M subtype B, UniProt P04585); experiment: InSTANT integrase DNA strand transfer functional assay; type: biochemical, HIV; details: SPA strand transfer, 15 minutes at 37° C.
T1 construct: assembled PVT SPA beads with WT-Integrase and boitinylated DNA
Method: InSTANT is an integrase DNA strand transfer functional assay used to determine potency of InSTIs, which was carried out as described below. 8 μl of SPA buffer (27.8 mM Hepes, 27.8 mM MgCl2, 111.1 μg/mL BSA, 5.56 mM βME, and 57.1 mM NaCl) containing 5 nM 3H-labeled target DNA (prepared separately) and 10 μl of assembled PVT SPA beads with WT-Integrase and boitinylated DNA (prepared separately) were added to the assay plate which contained 0.4 μl of test compound(s) or positive or negative control compound(s) per well. The assay plate was shaken for 1 minute on HT-91002 1.0 MM shaker and then was sealed and incubated for 15 minutes at 37° C. The assay reaction was quenched by adding 4 μl of 1.25 M EDTA to each well of the assay plate with mixing. After incubating the plate at room temperature for 1 hour, the quenched plate was spun at 200 g for 1 minute and read on TopCount (1 minute per well). Percent inhibition was calculated by [1−(Sample−Min)/(Max−Min)]*100. Compound potency IP or IC50 was determined by a 4-parameter dose response curve analysis.

[3] = Human immunodeficiency virus 1, NL43

| Structure (SMILES) | IC50 [1, 3] | IC50 [2] | IC50 [1] |
| --- | --- | --- | --- |
| O=C1c2c(O)c(=O)c3c(n2CCN1Cc1ccc(F)c(Cl)c1)COCCC3 [Compound 1, 9-(3-chloro-4-fluorobenzyl)-7-hydroxy-4,5,10,11-tetrahydro-1H-oxepino[4′,3′:5,6]pyrido[1,2-a]pyrazine-6,8(3H,9H)-dione] | 347 nM | 58 nM | – |
| O=C1c2c(O)c(=O)c3c(n2CCN1Cc1ccc(F)c(Cl)c1)COCC=C3 [Compound 2, 9-(3-chloro-4-fluorobenzyl)-7-hydroxy-10,11-dihydro-1H-oxepino[4′,3′:5,6]pyrido[1,2-a]pyrazine-6,8(3H,9H)-dione] | 76 nM | 11 nM | – |
| O=C1c2c(O)c(=O)c3c(n2CCN1Cc1ccc(F)c(Cl)c1)COCC1CC31 (centres unmarked) [Compound 3, 2-(3-chloro-4-fluorobenzyl)-11-hydroxy-3,4,8,8a,9,9a-hexahydrocyclopropa[5′,6]oxepino[4′,3′:5,6]pyrido[1,2-a]pyrazine-1,10(2H,6H)-dione] | 241 nM | – | – |
| CC1=CCOCc2c1c(=O)c(O)c1n2CCN(Cc2ccc(F)c(Cl)c2)C1=O [Compound 4, 9-(3-chloro-4-fluorobenzyl)-7-hydroxy-5-methyl-10,11-dihydro-1H-oxepino[4′,3′:5,6]pyrido[1,2-a]pyrazine-6,8(3H,9H)-dione] | 91 nM | 18 nM | – |
| C/C=C1\COCc2c1c(=O)c(O)c1n2CCN(Cc2ccc(F)c(Cl)c2)C1=O [Compound 5, (Z)-8-(3-chloro-4-fluorobenzyl)-4-ethylidene-6-hydroxy-3,4,9,10-tetrahydropyrano[4′,3′:5,6]pyrido[1,2-a]pyrazine-5,7(1H,8H)-dione] | 183 nM | – | – |
| CCC1COCc2c1c(=O)c(O)c1n2CCN(Cc2ccc(F)cc2)C1=O (centres unmarked) [Compound 6] | 492 nM | 21 nM | – |
| CCC1COCc2c1c(=O)c(O)c1n2CCN(Cc2ccc(F)c(Cl)c2)C1=O (centres unmarked) [Compound 7] | 461 nM | 13 nM | – |
| CC1CC12COCc1c2c(=O)c(O)c2n1CCN(Cc1ccc(F)c(Cl)c1)C2=O (centres unmarked) [Compound 8, 8′-(3-chloro-4-fluorobenzyl)-6′-hydroxy-2-methyl-9′,10′-dihydro-1′H-spiro[cyclopropane-1,4′-pyrano[4′,3′:5,6]pyrido[1,2-a]pyrazine]-5′,7′(3′H,8′H)-dione] | 507 nM | 28 nM | – |
| O=C1c2c(O)c(=O)c3c(n2CCN1Cc1ccc(F)cc1)COCCCC3 [Compound 9, 10-(4-fluorobenzyl)-8-hydroxy-3,4,5,6,11,12-hexahydrooxocino[4,3′:5,6]pyrido[1,2-a]pyrazine-7, 9(1H, 1 OH)-dione] | – | – | 961 nM |
| CC(C)c1c(CNC(=O)c2ccon2)n2c(c(O)c1=O)C(=O)N(Cc1ccc(F)c(Cl)c1)CC2 [Compound 10, N-((2-(3-chloro-4-fluorobenzyl)-9-hydroxy-7-isopropyl-1,8-dioxo-2,3,4,8-tetrahydro-1H-pyrido[1,2-a]pyrazin-6-yl)methyl)isoxazole-3-carboxamide] | 406 nM | – | – |
| C=C1COCc2c1c(=O)c(O)c1n2CCN(Cc2ccc(F)c(Cl)c2)C1=O [Compound 11, 8-(3-chloro-4-fluorobenzyl)-6-hydroxy-4-methylene-3,4,9,10-tetrahydropyrano[4′,3′:5,6]pyrido[1,2-a]pyrazine-5,7(1H,8H)-dione] | 298 nM | – | – |
| O=C1c2c(O)c(=O)c3c(n2CCN1Cc1ccc(F)c(Cl)c1)COC31C=CCC1 (centres unmarked) [Compound 12, 7′-(3-chloro-4-fluorobenzyl)-5′-hydroxy-8′,9′-dihydrospiro[cyclopent[2]ene-1,3′-furo[3′,4′:5,6]pyrido[1,2-a]pyrazine]-4′,6′(1′H,7′H)-dione] | – | – | 1020 nM |
| O=C1c2c(O)c(=O)c3c(n2CCN1Cc1ccc(F)c(Cl)c1)COC31CCC2CC21 (centres unmarked) [Compound 13] | 333 nM | 8 nM | – |
| O=C1c2c(O)c(=O)c3c(n2CCN1Cc1ccc(F)c(Cl)c1)COC31CCCC1O (centres unmarked) [Compound 14, 7′-(3-chloro-4-fluorobenzyl)-2,5′-dihydroxy-8′,9′-dihydrospiro[cyclopentane-1,3′-furo[3′,4′:5,6]pyrido[1,2-a]pyrazine]-4′,6′(1′H,7′H)-dione] | 144 nM | 12 nM | – |
| O=C1c2c(O)c(=O)c3c(n2CCN1Cc1ccc(F)c(Cl)c1)COC31C=CCCC1 (centres unmarked) [Compound 15, 7′-(3-chloro-4-fluorobenzyl)-5′-hydroxy-8′,9′-dihydrospiro[cyclohex[2]ene-1,3′-furo[3′,4′:5,6]pyrido[1,2-a]pyrazine]-4′,6′(1′H,7′H)-dione] | 401 nM | – | – |
| CC1CCNCc2c1c(=O)c(O)c1n2CCN(Cc2ccc(F)c(Cl)c2)C1=O (centres unmarked) [Compound 16, 9-(3-chloro-4-fluorobenzyl)-7-hydroxy-5-methyl-2,3,4,5,10,11-hexahydropyrazino[1′,2′:1,6]pyrido[2,3-c]azepine-6,8(1H,9H)-dione trifluoroacetate salt] | 487 nM | – | – |
| C=C1CCN(C(=O)C(=O)N(C)C)Cc2c1c(=O)c(O)c1n2CCN(Cc2ccc(F)c(Cl)c2)C1=O [Compound 17, 2-(9-(3-chloro-4-fluorobenzyl)-7-hydroxy-5-methylene-6,8-dioxo-4,5,8,9,10,11-hexahydropyrazino[1′,2′:1,6]pyrido[2,3-c]azepin-2(1H,3H,6H)-yl)-N,N-dimethyl-2-oxoacetamide] | > 4200 nM | – | – |
| CC1CCN(C(=O)C(=O)N(C)C)Cc2c1c(=O)c(O)c1n2CCN(Cc2ccc(F)c(Cl)c2)C1=O (centres unmarked) [Compound 18, 2-(9-(3-chloro-4-fluorobenzyl)-7-hydroxy-5-methyl-6,8-dioxo-4,5,8,9,10,11-hexahydropyrazino[1′,2′:1,6]pyrido[2,3-c]azepin-2(1H,3H,6H)-yl)-N,N-dimethyl-2-oxoacetamide] | 3660 nM | 20 nM | – |
| CC(C)c1c(C(=O)N(C)C)n2c(c(O)c1=O)C(=O)N(Cc1ccc(F)c(Cl)c1)CC2 [Compound 19, 2-(3-chloro-4-fluorobenzyl)-9-hydroxy-7-isopropyl-N,N-dimethyl-1,8-dioxo-2,3,4,8-tetrahydro-1H-pyrido[1,2-a]pyrazine-6-carboxamide] | 82 nM | 10 nM | – |
| CC(C)c1c(C(=O)N(C)C)n2c(c(O)c1=O)C(=O)N(Cc1ccc(F)cc1)CC2 [Compound 20, 2-(4-fluorobenzyl)-9-hydroxy-7-isopropyl-N,N-dimethyl-1,8-dioxo-2,3,4,8-tetrahydro-1H-pyrido[1,2-a]pyrazine-6-carboxamide] | 286 nM | 20 nM | – |
| CN1C/C=C\Cc2c(n3c(c(O)c2=O)C(=O)N(Cc2ccc(F)c(Cl)c2)CC3)C1=O [Compound 23, (Z)-10-(3-chloro-4-fluorobenzyl)-8-hydroxy-2-methyl-2,3,11,12-tetrahydro-1H-pyrazino[1′,2′:1,6]pyrido[2,3-c]azocine-1,7,9(6H,10H)-trione] | 273 nM | – | – |
| CCc1cn(C)c(=O)c2c1c(=O)c(O)c1n2CCN(Cc2ccc(F)c(Cl)c2)C1=O [Compound 24, 8-(3-chloro-4-fluorobenzyl)-4-ethyl-6-hydroxy-2-methyl-9,10-dihydro-1H-pyrazino[1,2-a][1,7]naphthyridine-1,5,7(2H,8H)-trione] | 1120 nM | – | – |
| C=C(C)C1COCc2c1c(=O)c(O)c1n2CCN(Cc2ccc(F)c(Cl)c2)C1=O (centres unmarked) [Compound 26] | 272 nM | – | – |
| CC(C)C1COCc2c1c(=O)c(O)c1n2CCN(Cc2ccc(F)cc2)C1=O (centres unmarked) [Compound 27] | 672 nM | – | – |
| C=C1CCOCc2c1c(=O)c(O)c1n2CCN(Cc2ccc(F)c(Cl)c2)C1=O [Compound 28] | 503 nM | – | – |
| C=C1CCN(C(=O)CN(C)C)Cc2c1c(=O)c(O)c1n2CCN(Cc2ccc(F)c(Cl)c2)C1=O [Compound 29] | > 4200 nM | – | – |
| CC1CCN(C(=O)CN(C)C)Cc2c1c(=O)c(O)c1n2CCN(Cc2ccc(F)c(Cl)c2)C1=O (centres unmarked) [Compound 30] | 3250 nM | – | – |
